# Reference: article PMC4490784, “Compensatory induction of MYC expression by sustained CDK9 inhibition via a BRD4-dependent mechanism” (eLife, 2015)
# Assays:
# Assay in all cases: KINOMEscan binding assay
# PRKX = molecular target: T1, PRKX (Homo sapiens, UniProt P51817); details: read-out: % Retention on Solid Support
# T1 construct: purchased DiscoveRx KINOMEscan
# Summary of the method: (§1)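 Selectivity profiling used a competition-binding format directed at the kinase active site. The inhibitor was screened at 1 and 10 µM over a panel exceeding 400 kinases.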
# SRPK1 = molecular target: T2, SRPK1 (Homo sapiens, UniProt Q96SB4); details: read-out: % Retention on Solid Support
# T2 construct: purchased DiscoveRx KINOMEscan
# Summary of the method: as §1
# MAP4K2 = molecular target: T3, MAP4K2 (Homo sapiens, UniProt Q12851); details: read-out: % Retention on Solid Support
# T3 construct: purchased DiscoveRx KINOMEscan
# T3 sequence (Q12851 whole entry): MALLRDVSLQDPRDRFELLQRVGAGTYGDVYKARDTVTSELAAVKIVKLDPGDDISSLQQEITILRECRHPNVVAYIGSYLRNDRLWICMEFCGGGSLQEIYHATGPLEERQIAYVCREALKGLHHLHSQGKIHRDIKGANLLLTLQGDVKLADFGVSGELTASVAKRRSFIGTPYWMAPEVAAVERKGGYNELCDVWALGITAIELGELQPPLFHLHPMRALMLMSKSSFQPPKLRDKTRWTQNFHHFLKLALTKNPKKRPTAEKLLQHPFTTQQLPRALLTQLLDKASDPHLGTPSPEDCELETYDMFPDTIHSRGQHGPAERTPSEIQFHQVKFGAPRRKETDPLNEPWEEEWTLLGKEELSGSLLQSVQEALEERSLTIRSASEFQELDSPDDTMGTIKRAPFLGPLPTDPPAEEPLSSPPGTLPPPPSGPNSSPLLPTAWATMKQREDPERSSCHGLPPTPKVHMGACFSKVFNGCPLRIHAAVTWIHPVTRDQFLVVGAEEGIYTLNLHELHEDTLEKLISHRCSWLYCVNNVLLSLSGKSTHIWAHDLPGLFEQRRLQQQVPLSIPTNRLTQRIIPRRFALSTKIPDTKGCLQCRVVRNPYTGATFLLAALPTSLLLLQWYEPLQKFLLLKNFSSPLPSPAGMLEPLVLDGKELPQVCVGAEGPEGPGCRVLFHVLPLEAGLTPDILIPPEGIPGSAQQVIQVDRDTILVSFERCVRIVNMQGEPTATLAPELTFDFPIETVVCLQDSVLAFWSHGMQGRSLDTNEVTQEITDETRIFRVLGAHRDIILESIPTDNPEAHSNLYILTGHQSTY
# Summary of the method: as §1
# TGFBR1 = molecular target: T4, TGFBR1 (Homo sapiens, UniProt P36897); details: read-out: % Retention on Solid Support
# T4 construct: purchased DiscoveRx KINOMEscan
# Summary of the method: as §1
# DAPK3 = molecular target: T5, DAPK3 (Homo sapiens, UniProt O43293); details: read-out: % Retention on Solid Support
# T5 construct: purchased DiscoveRx KINOMEscan
# Summary of the method: as §1
# ERBB3 = molecular target: T6, ERBB3 (Homo sapiens, UniProt P21860); details: read-out: % Retention on Solid Support
# T6 construct: purchased DiscoveRx KINOMEscan
# T6 sequence (P21860 20-1342): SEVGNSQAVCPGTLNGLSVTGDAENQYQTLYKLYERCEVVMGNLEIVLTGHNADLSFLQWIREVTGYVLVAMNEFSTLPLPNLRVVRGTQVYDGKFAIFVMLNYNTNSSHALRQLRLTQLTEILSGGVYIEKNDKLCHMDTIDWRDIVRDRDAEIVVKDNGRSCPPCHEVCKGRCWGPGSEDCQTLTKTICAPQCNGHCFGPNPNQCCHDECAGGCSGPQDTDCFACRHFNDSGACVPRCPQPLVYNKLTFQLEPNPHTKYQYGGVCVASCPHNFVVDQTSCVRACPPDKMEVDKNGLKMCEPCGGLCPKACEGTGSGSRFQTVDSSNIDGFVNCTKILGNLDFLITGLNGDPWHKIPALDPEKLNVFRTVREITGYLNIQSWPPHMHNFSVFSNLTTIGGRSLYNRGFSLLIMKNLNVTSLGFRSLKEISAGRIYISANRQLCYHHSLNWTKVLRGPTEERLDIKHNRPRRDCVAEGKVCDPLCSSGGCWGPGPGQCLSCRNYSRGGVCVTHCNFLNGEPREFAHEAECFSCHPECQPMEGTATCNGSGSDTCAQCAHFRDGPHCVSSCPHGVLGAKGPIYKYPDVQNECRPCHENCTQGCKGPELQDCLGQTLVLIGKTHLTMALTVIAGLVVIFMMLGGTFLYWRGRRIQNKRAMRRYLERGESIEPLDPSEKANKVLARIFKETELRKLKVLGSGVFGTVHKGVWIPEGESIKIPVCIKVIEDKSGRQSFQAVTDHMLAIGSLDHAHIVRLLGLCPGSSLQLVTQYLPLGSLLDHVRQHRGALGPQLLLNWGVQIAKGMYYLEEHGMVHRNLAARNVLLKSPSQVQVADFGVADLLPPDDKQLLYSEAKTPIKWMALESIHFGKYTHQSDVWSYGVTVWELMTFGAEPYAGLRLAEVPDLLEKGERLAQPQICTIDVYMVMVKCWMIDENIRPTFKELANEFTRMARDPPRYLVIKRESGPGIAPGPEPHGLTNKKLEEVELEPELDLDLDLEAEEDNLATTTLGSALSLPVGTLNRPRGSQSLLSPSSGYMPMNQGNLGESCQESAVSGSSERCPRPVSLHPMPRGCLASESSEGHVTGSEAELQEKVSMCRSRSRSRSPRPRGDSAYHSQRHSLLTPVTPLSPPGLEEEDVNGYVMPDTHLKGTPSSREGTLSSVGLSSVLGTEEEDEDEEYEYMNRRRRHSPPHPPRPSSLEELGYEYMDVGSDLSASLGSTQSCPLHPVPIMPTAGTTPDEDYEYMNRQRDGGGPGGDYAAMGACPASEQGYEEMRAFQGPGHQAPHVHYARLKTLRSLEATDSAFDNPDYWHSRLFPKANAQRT
# Summary of the method: as §1
# GCN2(Kin.Dom.2,S808G) = molecular target: T7, GCN2(Kin.Dom.2,S808G) (Homo sapiens, UniProt Q9P2K8, S808G); details: read-out: % Retention on Solid Support
# T7 construct: GCN2(Kin.Dom.2,S808G); purchased DiscoveRx KINOMEscan
# T7 sequence (Q9P2K8 590-1001 S808G limits assumed): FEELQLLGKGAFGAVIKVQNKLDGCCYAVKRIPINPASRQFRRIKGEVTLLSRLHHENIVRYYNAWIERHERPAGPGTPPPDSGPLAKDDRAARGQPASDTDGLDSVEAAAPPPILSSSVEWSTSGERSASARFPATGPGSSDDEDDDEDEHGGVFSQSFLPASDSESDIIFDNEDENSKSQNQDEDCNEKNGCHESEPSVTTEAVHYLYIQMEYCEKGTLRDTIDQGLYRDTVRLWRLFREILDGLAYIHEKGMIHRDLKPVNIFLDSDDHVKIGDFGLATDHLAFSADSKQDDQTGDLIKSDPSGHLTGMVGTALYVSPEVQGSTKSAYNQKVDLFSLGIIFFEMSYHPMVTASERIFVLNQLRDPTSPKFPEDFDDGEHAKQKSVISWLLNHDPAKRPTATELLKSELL
# Summary of the method: as §1
# SgK110 = molecular target: T8, SgK110 (Homo sapiens, UniProt P0C264); details: read-out: % Retention on Solid Support
# T8 construct: purchased DiscoveRx KINOMEscan
# Summary of the method: as §1
# FGFR2 = molecular target: T9, FGFR2 (Homo sapiens, UniProt P21802); details: read-out: % Retention on Solid Support
# T9 construct: purchased DiscoveRx KINOMEscan
# Summary of the method: as §1
# CSNK1G2 = molecular target: T10, CSNK1G2 (Homo sapiens, UniProt P78368)
# T10 construct: purchased DiscoveRx KINOMEscan
# Summary of the method: as §1
# CDKL1 = molecular target: T11, CDKL1 (Homo sapiens, UniProt Q00532); details: 1 µM i-CDK9; read-out: % Retention on Solid Support
# T11 construct: purchased DiscoveRx KINOMEscan
# Summary of the method: as §1
# LOK = molecular target: T12, LOK (Homo sapiens, UniProt O94804)
# T12 construct: purchased DiscoveRx KINOMEscan
# Summary of the method: as §1
# PIK3CA(M1043I) = molecular target: T13, PIK3CA(M1043I) (Homo sapiens, UniProt P42336, M1043I); details: read-out: % Retention on Solid Support
# T13 construct: purchased DiscoveRx KINOMEscan
# T13 sequence (P42336 whole entry M1043I): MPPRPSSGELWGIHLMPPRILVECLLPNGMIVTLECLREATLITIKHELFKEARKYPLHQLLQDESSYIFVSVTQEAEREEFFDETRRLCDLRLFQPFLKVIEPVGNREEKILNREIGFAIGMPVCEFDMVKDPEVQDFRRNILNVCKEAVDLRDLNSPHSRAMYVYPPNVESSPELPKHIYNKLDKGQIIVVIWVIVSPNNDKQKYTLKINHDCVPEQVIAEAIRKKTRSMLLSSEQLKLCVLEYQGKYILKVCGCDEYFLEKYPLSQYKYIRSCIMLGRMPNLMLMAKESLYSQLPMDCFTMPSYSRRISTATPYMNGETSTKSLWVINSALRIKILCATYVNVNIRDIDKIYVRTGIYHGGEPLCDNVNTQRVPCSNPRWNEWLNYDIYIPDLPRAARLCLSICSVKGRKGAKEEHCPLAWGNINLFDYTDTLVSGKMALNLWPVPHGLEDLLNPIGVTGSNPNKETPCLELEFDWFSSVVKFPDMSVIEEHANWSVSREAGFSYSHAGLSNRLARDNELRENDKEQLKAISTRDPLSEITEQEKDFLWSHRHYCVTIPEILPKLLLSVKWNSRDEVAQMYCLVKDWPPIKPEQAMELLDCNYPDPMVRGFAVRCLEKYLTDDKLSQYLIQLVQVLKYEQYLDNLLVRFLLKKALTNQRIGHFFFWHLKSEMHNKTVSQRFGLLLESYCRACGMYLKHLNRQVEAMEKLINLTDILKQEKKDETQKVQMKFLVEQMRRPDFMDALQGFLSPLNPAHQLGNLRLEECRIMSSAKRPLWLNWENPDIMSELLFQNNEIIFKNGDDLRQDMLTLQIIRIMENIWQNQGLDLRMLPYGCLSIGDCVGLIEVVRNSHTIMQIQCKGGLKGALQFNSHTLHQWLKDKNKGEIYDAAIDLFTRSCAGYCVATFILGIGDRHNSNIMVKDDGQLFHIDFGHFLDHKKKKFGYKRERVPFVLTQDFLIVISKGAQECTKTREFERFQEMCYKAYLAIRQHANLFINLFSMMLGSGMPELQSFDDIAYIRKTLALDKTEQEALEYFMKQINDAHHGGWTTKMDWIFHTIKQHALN
# Summary of the method: as §1
# TEC = molecular target: T14, TEC (Homo sapiens, UniProt P42680); details: read-out: % Retention on Solid Support
# T14 construct: purchased DiscoveRx KINOMEscan
# Summary of the method: as §1
# PKMYT1 = molecular target: T15, PKMYT1 (Homo sapiens, UniProt Q99640)
# T15 construct: purchased DiscoveRx KINOMEscan
# Summary of the method: as §1
# YES = molecular target: T16, YES (Homo sapiens, UniProt P07947); details: read-out: % Retention on Solid Support
# T16 construct: purchased DiscoveRx KINOMEscan
# Summary of the method: as §1
# CSNK1G1 = molecular target: T17, CSNK1G1 (Homo sapiens, UniProt Q9HCP0)
# T17 construct: purchased DiscoveRx KINOMEscan
# T17 sequence (Q9HCP0 whole entry): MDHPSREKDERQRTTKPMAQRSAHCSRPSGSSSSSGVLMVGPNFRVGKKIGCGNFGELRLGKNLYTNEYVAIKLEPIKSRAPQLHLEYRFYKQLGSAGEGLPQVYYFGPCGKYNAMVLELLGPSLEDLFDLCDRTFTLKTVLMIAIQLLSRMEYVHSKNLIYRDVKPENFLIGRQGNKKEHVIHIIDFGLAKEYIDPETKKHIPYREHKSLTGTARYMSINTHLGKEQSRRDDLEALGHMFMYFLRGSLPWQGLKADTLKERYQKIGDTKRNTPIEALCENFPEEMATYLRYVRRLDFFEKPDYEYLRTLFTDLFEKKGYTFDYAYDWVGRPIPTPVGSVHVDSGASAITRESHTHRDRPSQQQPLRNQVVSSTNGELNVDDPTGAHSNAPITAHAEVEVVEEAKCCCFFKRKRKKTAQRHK
# Summary of the method: as §1
# KIT(L576P) = molecular target: T18, KIT(L576P) (Homo sapiens, UniProt P10721, L576P); details: read-out: % Retention on Solid Support
# T18 construct: purchased DiscoveRx KINOMEscan
# Summary of the method: as §1
# MYO3A = molecular target: T19, MYO3A (Homo sapiens, UniProt Q8NEV4); details: read-out: % Retention on Solid Support
# T19 construct: purchased DiscoveRx KINOMEscan
# Summary of the method: as §1
# EPHA3 = molecular target: T20, EPHA3 (Homo sapiens, UniProt P29320); details: read-out: % Retention on Solid Support
# T20 construct: purchased DiscoveRx KINOMEscan
# Summary of the method: as §1
# PIK3CA(I800L) = molecular target: T21, PIK3CA(I800L) (Homo sapiens, UniProt P42336, I800L); details: 1 µM i-CDK9; read-out: % Retention on Solid Support
# T21 construct: purchased DiscoveRx KINOMEscan
# T21 sequence (P42336 whole entry I800L): as the sequence (P42336 whole entry M1043I) above, with I800L, I1043M counted along it
# Summary of the method: as §1
# RIOK3 = molecular target: T22, RIOK3 (Homo sapiens, UniProt O14730); details: read-out: % Retention on Solid Support
# T22 construct: purchased DiscoveRx KINOMEscan
# Summary of the method: as §1
# CDKL3 = molecular target: T23, CDKL3 (Homo sapiens, UniProt Q8IVW4); details: read-out: % Retention on Solid Support
# T23 construct: purchased DiscoveRx KINOMEscan
# T23 sequence (Q8IVW4 whole entry): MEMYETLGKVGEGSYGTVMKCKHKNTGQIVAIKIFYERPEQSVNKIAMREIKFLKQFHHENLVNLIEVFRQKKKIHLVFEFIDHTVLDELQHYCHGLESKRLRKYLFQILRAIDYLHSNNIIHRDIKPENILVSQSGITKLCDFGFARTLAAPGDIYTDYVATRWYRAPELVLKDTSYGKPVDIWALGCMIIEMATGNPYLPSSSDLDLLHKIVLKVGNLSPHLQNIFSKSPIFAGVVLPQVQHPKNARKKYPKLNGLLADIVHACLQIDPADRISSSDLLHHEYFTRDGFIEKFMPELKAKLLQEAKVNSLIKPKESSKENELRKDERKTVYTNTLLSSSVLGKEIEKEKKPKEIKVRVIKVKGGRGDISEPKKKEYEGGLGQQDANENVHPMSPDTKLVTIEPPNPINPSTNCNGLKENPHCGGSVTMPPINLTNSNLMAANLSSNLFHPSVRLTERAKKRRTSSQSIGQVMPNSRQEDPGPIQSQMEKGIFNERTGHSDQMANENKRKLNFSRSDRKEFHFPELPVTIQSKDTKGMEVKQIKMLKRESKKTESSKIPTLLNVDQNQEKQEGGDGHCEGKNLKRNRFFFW
# Summary of the method: as §1
# PKAC-alpha = molecular target: T24, PKAC-alpha (Homo sapiens, UniProt P17612); details: read-out: % Retention on Solid Support
# T24 construct: purchased DiscoveRx KINOMEscan
# Summary of the method: as §1
# FGFR3 = molecular target: T25, FGFR3 (Homo sapiens, UniProt P22607); details: read-out: % Retention on Solid Support
# T25 construct: purchased DiscoveRx KINOMEscan
# Summary of the method: as §1
# MLK1 = molecular target: T26, MLK1 (Homo sapiens, UniProt P80192); details: read-out: % Retention on Solid Support
# T26 construct: purchased DiscoveRx KINOMEscan
# Summary of the method: as §1
# [1] = molecular target: T27, ABL1(T315I)-phosphorylated (Homo sapiens, UniProt P00519, T315I); details: 1 µM i-CDK9; read-out: % Retention on Solid Support
# T27 construct: purchased DiscoveRx KINOMEscan
# Summary of the method: as §1
# ERK3 = molecular target: T28, ERK3 (Homo sapiens, UniProt Q16659); details: read-out: % Retention on Solid Support
# T28 construct: purchased DiscoveRx KINOMEscan
# Summary of the method: as §1
# BMPR1B = molecular target: T29, BMPR1B (Homo sapiens, UniProt O00238); details: read-out: % Retention on Solid Support
# T29 construct: purchased DiscoveRx KINOMEscan
# Summary of the method: as §1
# T1 sequence (P51817 whole entry): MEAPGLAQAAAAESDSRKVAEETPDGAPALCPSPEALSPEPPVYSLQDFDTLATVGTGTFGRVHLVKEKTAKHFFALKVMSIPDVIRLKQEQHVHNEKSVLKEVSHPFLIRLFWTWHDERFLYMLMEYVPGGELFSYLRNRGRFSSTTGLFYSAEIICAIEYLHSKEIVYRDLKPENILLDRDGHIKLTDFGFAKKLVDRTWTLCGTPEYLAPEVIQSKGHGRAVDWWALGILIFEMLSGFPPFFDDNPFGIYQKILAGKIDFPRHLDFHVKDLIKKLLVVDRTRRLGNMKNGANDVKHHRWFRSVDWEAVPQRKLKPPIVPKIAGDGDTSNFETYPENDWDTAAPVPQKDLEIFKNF
smiles,measurement,setting,value
"N[C@H]1CC[C@H](Nc2cc(-c3cccc(NCc4cccc(F)c4)n3)c(Cl)cn2)CC1 [i-CDK9, N2′-(trans-4-aminocyclohexyl)-5′-chloro-N6-(3-fluorobenzyl)-2,4′-bipyridine-2′,6-diamine]",remaining binding at 1 µM,PRKX; 1 µM i-CDK9,100%
same,remaining binding at 10 µM,PRKX; 10 µM i-CDK9,90%
same,remaining binding at 1 µM,SRPK1; 1 µM i-CDK9,100%
same,remaining binding at 10 µM,SRPK1; 10 µM i-CDK9,70%
same,remaining binding at 1 µM,MAP4K2; 1 µM i-CDK9,64%
same,remaining binding at 10 µM,MAP4K2; 10 µM i-CDK9,10%
same,remaining binding at 1 µM,TGFBR1; 1 µM i-CDK9,95%
same,remaining binding at 10 µM,TGFBR1; 10 µM i-CDK9,100%
same,remaining binding at 1 µM,DAPK3; 1 µM i-CDK9,90%
same,remaining binding at 10 µM,DAPK3; 10 µM i-CDK9,70%
same,remaining binding at 1 µM,ERBB3; 1 µM i-CDK9,100%
same,remaining binding at 10 µM,ERBB3; 10 µM i-CDK9,100%
same,remaining binding at 1 µM,"GCN2(Kin.Dom.2,S808G); 1 µM i-CDK9",100%
same,remaining binding at 10 µM,"GCN2(Kin.Dom.2,S808G); 10 µM i-CDK9",100%
same,remaining binding at 1 µM,SgK110; 1 µM i-CDK9,72%
same,remaining binding at 10 µM,SgK110; 10 µM i-CDK9,100%
same,remaining binding at 1 µM,FGFR2; 1 µM i-CDK9,97%
same,remaining binding at 10 µM,FGFR2; 10 µM i-CDK9,100%
same,% Retention on Solid Support,CSNK1G2; 1 µM i-CDK9,100%
same,% Retention on Solid Support,CSNK1G2; 10 µM i-CDK9,66%
same,remaining binding at 1 µM,CDKL1,100%
same,% Retention on Solid Support,LOK; 1 µM i-CDK9,89%
same,% Retention on Solid Support,LOK; 10 µM i-CDK9,100%
same,remaining binding at 1 µM,PIK3CA(M1043I); 1 µM i-CDK9,100%
same,remaining binding at 10 µM,PIK3CA(M1043I); 10 µM i-CDK9,75%
same,remaining binding at 1 µM,TEC; 1 µM i-CDK9,99%
same,remaining binding at 10 µM,TEC; 10 µM i-CDK9,100%
same,% Retention on Solid Support,PKMYT1; 1 µM i-CDK9,100%
same,% Retention on Solid Support,PKMYT1; 10 µM i-CDK9,93%
same,remaining binding at 1 µM,YES; 1 µM i-CDK9,84%
same,remaining binding at 10 µM,YES; 10 µM i-CDK9,90%
same,% Retention on Solid Support,CSNK1G1; 1 µM i-CDK9,81%
same,% Retention on Solid Support,CSNK1G1; 10 µM i-CDK9,93%
same,remaining binding at 1 µM,KIT(L576P); 1 µM i-CDK9,91%
same,remaining binding at 10 µM,KIT(L576P); 10 µM i-CDK9,100%
same,remaining binding at 1 µM,MYO3A; 1 µM i-CDK9,91%
same,remaining binding at 10 µM,MYO3A; 10 µM i-CDK9,96%
same,remaining binding at 1 µM,EPHA3; 1 µM i-CDK9,85%
same,remaining binding at 10 µM,EPHA3; 10 µM i-CDK9,100%
same,remaining binding at 1 µM,PIK3CA(I800L),100%
same,remaining binding at 1 µM,RIOK3; 1 µM i-CDK9,86%
same,remaining binding at 10 µM,RIOK3; 10 µM i-CDK9,73%
same,remaining binding at 1 µM,CDKL3; 1 µM i-CDK9,44%
same,remaining binding at 10 µM,CDKL3; 10 µM i-CDK9,23%
same,remaining binding at 1 µM,PKAC-alpha; 1 µM i-CDK9,86%
same,remaining binding at 10 µM,PKAC-alpha; 10 µM i-CDK9,100%
same,remaining binding at 1 µM,FGFR3; 1 µM i-CDK9,100%
same,remaining binding at 10 µM,FGFR3; 10 µM i-CDK9,95%
same,remaining binding at 1 µM,MLK1; 1 µM i-CDK9,100%
same,remaining binding at 10 µM,MLK1; 10 µM i-CDK9,100%
same,remaining binding at 1 µM,[1],100%
same,remaining binding at 1 µM,ERK3; 1 µM i-CDK9,94%
same,remaining binding at 10 µM,ERK3; 10 µM i-CDK9,94%
same,remaining binding at 1 µM,BMPR1B; 1 µM i-CDK9,100%
same,remaining binding at 10 µM,BMPR1B; 10 µM i-CDK9,89%
